Reference: patent US20220192984A1, “PHARMACEUTICAL COMPOSITIONS COMPRISING OTIC THERAPEUTIC AGENTS AND RELATED METHODS” (Frequency Therapeutics, Inc., priority 2018, published 2022)
Where two headings read alike, the source gives them in different places. Blank lines part the entries; values can stand above or below the compound they belong to.

Experiments:
LSD1 [1] = biological target: T1, LSD1 (Homo sapiens, UniProt O60341); details: Table 18; cited from earlier work
MAO A = biological target: T2, MAO A (Homo sapiens, UniProt P21397); details: Table 18, MAO A (first value or marked A); read-out: Select MAOs A and B; cited from earlier work
T2 sequence (P21397 1-527): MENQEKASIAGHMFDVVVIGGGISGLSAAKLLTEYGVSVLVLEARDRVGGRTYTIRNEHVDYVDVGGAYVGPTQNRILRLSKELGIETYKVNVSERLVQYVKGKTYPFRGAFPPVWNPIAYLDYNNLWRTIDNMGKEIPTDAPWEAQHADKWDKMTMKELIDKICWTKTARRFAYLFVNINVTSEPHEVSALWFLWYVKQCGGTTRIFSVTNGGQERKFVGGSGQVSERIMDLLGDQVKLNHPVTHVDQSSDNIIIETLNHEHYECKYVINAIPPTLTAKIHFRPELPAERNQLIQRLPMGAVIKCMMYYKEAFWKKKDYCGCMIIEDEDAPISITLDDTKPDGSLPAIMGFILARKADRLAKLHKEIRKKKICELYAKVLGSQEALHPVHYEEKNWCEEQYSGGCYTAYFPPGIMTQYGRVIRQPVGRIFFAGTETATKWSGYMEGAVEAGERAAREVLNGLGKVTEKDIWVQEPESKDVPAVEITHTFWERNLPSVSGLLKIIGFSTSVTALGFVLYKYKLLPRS

Lgr5+ cells = experiment: Lgr5+ Assay (Lgr5+ cell assay in vitro); type: cell-based
[2] = Perilymph Conc. listed for agents (Tables 14-25)
HDAC = details: Mechanism HDAC Inhib 1, 2, 3, 8; cited from earlier work
KDM [3] = details: cited from earlier work
KDM [4] = details: Table 21; cited from earlier work
DOT1L [5] = biological target: T3, DOT1L (Homo sapiens, UniProt Q8TEK3); details: Table 20; read-out: pKi or IC50 (converted); cited from earlier work
MAO B = biological target: T4, MAO B (Homo sapiens, UniProt P27338); details: Table 18, MAO B (second value or marked B); read-out: Select MAOs A and B; cited from earlier work
T4 sequence (P27338 1-520): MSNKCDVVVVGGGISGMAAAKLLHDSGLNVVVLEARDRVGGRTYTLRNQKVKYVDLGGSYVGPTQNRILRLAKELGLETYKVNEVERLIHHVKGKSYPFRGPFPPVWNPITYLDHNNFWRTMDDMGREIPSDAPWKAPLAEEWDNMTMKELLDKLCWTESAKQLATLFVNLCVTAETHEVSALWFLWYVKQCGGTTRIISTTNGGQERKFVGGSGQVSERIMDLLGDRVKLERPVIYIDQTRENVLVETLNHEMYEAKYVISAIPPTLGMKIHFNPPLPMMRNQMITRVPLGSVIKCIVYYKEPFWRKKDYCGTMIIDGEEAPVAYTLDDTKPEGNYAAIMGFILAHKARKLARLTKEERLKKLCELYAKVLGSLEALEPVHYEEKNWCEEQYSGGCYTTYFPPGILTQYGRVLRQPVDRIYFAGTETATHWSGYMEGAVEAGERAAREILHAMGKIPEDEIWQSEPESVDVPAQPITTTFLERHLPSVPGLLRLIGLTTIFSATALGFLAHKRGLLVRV

LSD1 [6] = biological target: T1, LSD1; details: Table 18, LSD1; read-out: pKi or IC50 (converted); cited from earlier work
[7] = cited from earlier work
EZH2 [8] = biological target: T5, EZH2 (Homo sapiens, UniProt Q15910); details: Table 19, EZH2; read-out: pKi or IC50 (converted); cited from earlier work
EZH2 [9] = biological target: T5, EZH2; details: Table 19; cited from earlier work
EZH-1 = EZH-1 (Homo sapiens, UniProt Q92800); details: Table 19; read-out: Select vs EZH-1; cited from earlier work
[10] = Human In Vivo Conc listed for agents; details: Table 20
DOT1L [11] = biological target: T3, DOT1L; details: Table 20; cited from earlier work
TAZ = details: Table 22; cited from earlier work
[12] = HDAC inhibitor table, upper end of the wrapped range 100 uM-4 mM
[13] = HDAC inhibitor table, upper end of the wrapped range 100 uM-4 mM, no test described
[14] = Table 21, KDM 4, read-out: Select KDM 4
[15] = Table 20, listed concentration, no test described
[16] = Table 22, listed concentration, no test described

T3 sequence (Q8TEK3 whole entry, species assumed): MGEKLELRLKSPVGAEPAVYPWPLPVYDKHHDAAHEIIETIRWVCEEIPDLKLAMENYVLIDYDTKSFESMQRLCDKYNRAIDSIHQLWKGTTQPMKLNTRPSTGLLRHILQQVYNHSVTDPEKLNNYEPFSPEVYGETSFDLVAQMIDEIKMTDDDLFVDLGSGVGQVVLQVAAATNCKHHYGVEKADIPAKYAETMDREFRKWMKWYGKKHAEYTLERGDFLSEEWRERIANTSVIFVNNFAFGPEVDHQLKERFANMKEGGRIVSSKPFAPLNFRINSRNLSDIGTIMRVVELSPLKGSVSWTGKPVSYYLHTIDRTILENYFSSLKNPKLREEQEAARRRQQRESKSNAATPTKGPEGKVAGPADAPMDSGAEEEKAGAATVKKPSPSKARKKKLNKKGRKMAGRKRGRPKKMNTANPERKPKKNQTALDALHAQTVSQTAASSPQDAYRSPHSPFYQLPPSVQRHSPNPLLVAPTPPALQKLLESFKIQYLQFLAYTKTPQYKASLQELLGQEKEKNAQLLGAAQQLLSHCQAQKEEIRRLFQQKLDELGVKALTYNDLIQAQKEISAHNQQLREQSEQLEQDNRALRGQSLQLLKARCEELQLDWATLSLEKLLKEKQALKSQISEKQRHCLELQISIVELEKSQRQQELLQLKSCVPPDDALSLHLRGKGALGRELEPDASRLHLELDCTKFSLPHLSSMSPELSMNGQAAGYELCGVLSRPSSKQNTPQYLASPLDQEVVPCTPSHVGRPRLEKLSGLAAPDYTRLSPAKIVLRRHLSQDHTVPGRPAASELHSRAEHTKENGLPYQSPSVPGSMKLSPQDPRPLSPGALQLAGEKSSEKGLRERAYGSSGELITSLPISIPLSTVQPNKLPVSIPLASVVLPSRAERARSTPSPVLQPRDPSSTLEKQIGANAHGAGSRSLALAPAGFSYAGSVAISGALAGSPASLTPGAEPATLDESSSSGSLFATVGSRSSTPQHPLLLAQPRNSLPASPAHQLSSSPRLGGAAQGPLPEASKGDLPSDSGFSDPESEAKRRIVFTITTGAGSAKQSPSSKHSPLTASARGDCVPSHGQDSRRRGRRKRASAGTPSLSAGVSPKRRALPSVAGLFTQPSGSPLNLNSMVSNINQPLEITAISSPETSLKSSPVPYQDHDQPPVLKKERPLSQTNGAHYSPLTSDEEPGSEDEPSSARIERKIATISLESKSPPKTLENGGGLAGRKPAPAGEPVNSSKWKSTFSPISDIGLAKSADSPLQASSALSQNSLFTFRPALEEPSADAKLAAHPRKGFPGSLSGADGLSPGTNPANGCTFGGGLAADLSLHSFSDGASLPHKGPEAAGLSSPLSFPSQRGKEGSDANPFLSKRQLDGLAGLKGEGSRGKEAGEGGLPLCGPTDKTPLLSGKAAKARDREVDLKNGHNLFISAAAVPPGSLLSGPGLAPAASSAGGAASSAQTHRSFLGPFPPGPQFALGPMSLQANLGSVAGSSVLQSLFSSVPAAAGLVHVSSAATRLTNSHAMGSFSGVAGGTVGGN
T5 sequence (Q15910 whole entry, species assumed): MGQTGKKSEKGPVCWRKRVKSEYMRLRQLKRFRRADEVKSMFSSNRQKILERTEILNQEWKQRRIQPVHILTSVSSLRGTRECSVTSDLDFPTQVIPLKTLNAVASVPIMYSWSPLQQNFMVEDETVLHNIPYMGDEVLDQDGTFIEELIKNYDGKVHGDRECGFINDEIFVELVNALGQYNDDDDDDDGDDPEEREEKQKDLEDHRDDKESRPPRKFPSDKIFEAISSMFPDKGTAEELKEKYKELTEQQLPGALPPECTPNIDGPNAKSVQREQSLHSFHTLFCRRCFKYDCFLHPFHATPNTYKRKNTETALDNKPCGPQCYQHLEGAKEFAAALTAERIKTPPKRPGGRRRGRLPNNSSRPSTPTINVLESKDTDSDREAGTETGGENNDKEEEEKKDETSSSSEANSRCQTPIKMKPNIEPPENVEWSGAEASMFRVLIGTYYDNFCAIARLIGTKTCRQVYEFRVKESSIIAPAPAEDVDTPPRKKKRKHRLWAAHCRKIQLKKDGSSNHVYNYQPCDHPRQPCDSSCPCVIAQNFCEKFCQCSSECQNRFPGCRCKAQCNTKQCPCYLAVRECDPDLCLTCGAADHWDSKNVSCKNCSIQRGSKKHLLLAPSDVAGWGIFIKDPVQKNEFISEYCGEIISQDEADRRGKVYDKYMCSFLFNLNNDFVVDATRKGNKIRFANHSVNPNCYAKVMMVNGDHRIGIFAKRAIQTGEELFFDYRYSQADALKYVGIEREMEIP
T5 sequence (O75530 whole entry partner, species assumed): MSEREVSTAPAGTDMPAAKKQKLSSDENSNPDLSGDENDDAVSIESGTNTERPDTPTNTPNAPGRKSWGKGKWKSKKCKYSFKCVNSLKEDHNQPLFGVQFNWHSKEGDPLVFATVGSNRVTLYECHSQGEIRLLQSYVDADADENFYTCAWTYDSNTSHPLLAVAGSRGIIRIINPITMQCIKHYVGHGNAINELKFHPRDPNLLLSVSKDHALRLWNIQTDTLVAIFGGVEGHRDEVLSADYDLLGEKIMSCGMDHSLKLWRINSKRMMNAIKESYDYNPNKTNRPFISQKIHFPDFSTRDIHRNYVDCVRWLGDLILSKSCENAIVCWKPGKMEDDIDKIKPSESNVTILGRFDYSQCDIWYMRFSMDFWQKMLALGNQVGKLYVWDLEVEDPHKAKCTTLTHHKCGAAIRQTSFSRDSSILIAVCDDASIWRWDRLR
T5 sequence (Q15022 whole entry partner, species assumed): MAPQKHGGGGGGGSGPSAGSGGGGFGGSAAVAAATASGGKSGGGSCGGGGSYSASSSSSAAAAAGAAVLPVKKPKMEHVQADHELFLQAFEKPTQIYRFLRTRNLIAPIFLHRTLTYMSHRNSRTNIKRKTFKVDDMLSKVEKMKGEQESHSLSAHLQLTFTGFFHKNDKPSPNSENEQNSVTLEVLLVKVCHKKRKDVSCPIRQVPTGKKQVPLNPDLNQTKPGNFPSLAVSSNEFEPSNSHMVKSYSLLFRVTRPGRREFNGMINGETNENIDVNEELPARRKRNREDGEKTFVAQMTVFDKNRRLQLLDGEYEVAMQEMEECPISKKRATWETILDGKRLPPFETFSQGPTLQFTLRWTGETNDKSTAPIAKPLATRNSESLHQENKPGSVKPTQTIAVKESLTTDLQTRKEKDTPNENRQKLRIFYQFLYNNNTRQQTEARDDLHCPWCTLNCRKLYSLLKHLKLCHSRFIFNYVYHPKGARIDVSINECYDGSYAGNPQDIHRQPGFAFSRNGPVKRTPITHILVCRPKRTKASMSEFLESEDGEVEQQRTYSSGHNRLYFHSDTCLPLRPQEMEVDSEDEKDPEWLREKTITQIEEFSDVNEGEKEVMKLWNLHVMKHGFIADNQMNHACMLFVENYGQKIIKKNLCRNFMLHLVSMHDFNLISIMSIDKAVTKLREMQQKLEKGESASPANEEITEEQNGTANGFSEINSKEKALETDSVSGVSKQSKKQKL
Chain of EZH-1 (Q92800 whole entry, species assumed): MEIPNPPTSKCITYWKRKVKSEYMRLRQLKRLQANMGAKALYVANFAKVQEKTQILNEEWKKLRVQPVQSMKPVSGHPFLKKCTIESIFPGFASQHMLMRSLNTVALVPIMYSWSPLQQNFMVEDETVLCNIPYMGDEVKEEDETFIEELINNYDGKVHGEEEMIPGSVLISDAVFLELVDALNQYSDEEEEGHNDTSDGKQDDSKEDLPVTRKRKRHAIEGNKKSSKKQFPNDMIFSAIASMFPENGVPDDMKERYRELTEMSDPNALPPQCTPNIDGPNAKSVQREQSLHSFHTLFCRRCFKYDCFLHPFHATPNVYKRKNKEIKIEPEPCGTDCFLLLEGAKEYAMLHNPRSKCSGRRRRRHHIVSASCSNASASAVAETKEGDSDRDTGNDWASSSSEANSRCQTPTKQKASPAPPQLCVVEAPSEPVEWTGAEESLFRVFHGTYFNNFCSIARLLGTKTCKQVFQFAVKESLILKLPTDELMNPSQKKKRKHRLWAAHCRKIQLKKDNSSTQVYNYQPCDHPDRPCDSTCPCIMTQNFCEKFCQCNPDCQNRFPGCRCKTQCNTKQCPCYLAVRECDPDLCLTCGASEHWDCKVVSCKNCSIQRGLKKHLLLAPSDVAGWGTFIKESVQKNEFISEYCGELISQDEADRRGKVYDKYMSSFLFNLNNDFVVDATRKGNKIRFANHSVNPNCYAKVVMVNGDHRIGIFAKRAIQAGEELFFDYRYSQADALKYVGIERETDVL
Chain of EZH-1 (O75530 whole entry partner, species assumed): as the sequence (O75530 whole entry partner, species assumed) above
Chain of EZH-1 (Q15022 whole entry partner, species assumed): as the sequence (Q15022 whole entry partner, species assumed) above

Compound: N[C@H]1CC[C@H](N[C@@H]2C[C@H]2c2ccccc2)CC1 (relative stereo) [ORY-1001]
Literat. Cell (LSD1 [1]): 0.5 to 3 nM
IC50 (MAO A): > 100 µM

Compound: CC(C)c1c(-c2ccccc2)[nH]c2c(C#N)cnn2c1=O [CPI-455]
IC50 (KDM [3]; [14]): 0.041 µM
Lit Cell (KDM [4]): 0.09 µM

Compound: Cc1ncccc1-c1c(Cl)sc2ccc(NC(=O)NCC(=O)NCCCN(C)[C@@H]3CCCN(c4ncnc5[nH]ccc45)C3)cc12 [Compound 7]
IC50 (DOT1L [5]): < 0.001 µM

Compound: CNc1ccnc(Nc2ccc3cc(C)n(-c4ccccc4Oc4cnc5c(c4)ncn5C)c3c2)n1 [Compound 13]
IC50 (DOT1L [5]): 0.0004 µM

Compound: Cn1cc(C(=O)Nc2ccc([C@@H]3C[C@H]3NCC3CC3)cc2)cn1 [Compound T-3775440]
IC50 (MAO A): 110 µM
IC50 (MAO B): 17 µM

Compound: Cc1ccc(-c2ncc(OC[C@@H]3CCNC3)cc2-c2ccc(C#N)cc2)cc1 [GSK-354]
IC50 (LSD1 [6]): 0.029 to 0.08 µM
Literat. Cell (LSD1 [1]): 1300 nM
IC50 (MAO B): 19 µM

Compound: O=C(O)CCNc1cc(N2CCc3ccccc3CC2)nc(-c2ccccn2)n1 [GSK-J1]
Lit Cell (KDM [4]): 50 µM

Compound: COc1cc(C)[nH]c(=O)c1CN1CCc2c(Cl)cc([C@H](OC)C3COC3)c(Cl)c2C1=O [PF-06821497]
Perilymph Conc ([2]; Table 19): 0.001 to 0.1 µM
Human In Vivo Conc ([7]; Table 19): 0.005 to 0.05 µM
IC50 (EZH2 [8]): < 0.001 µM
Lit Cell Poten (EZH2 [9]): 4 to 6 nM
IC50 (EZH-1): 0.07 µM

Continued, in another order:

Perilymph Conc [2, 13]: ≤ 4000 µM
Compound: C#CCC(CCCCCC)C(=O)O (stereo not drawn) [2-hexyl-4-pentynoic acid]
Lgr5+ Assay (Lgr5+ cells; [12]): ≤ 4000 µM
HDAC Potenc (HDAC): 13 µM

Perilymph Conc [2, 13]: ≤ 4000 µM
Compound: O=C(O)CCCc1ccccc1 [Na phenylbutyrate]
Lgr5+ Assay (Lgr5+ cells; [12]): ≤ 4000 µM
HDAC Potenc (HDAC): 9 to 16 µM

Perilymph Conc [2, 15]: 0.1 to 10 µM
Human In Vivo Conc [10]: (1-10 uM
Compound: CC(C)N(C[C@H]1O[C@@H](n2cnc3c(N)ncnc32)[C@H](O)[C@@H]1O)[C@H]1C[C@@H](CCc2nc3cc(C(C)(C)C)ccc3[nH]2)C1 [Pinometostat (EPZ-5676)]
Lit Cell (DOT1L [11]): 2.7 nM

Perilymph Conc [2, 15]: 0.6 to 5 µM
Human In Vivo Conc [10]: 0.1 to 5 µM
Compound: CC(C)N(CCCNC(=O)Nc1ccc(C(C)(C)C)cc1)C[C@H]1O[C@@H](n2cc(Br)c3c(N)ncnc32)[C@H](O)[C@@H]1O [SGC0946]
Lit Cell (DOT1L [11]): 10 nM

Perilymph Conc ([2]; Table 21): 0.12 to 10 µM
Compound: O=C(O)CCN(O)C(=O)CCCCCCCCC1CC1 [TC-E5002]
Lgr5+ Assay (Lgr5+ cells; Table 21): 0.12 to 10 µM
Human In Vivo Conc ([7]; Table 21): 0.12 to 10 µM
IC50 (KDM [3]; [14]): 83 µM
IC50 (KDM [3]; Table 21, KDM 5, read-out: Select KDM 5): 55 µM
IC50 (KDM [3]; Table 21, KDM 6, read-out: Select KDM 6): > 100 µM
Lit Cell (KDM [4]): 1640 µM

Perilymph Conc [2, 16]: 10 to 100 µM
Compound: CCCCc1nc2cc(-c3cccnc3)c(C)nc2n1Cc1ccc(-c2ccccc2-c2nn[nH]n2)cc1 [TM-25659]
Lgr5+ Assay (Lgr5+ cells; Table 22): 10 to 100 µM
Lit Cell (TAZ): 10 to 100 µM

Perilymph Conc [2, 16]: 1 to 10 µM
Compound: C=CCNc1nc(N)c(C(=O)c2ccc(F)s2)s1 [TT10]
Lgr5+ Assay (Lgr5+ cells; Table 22): 1 to 10 µM
Lit Cell (TAZ): 1 µM

Perilymph Conc ([2]; Table 19): 1 to 10 µM
Compound: CPI-169
Human In Vivo Conc ([7]; Table 19): 1 to 10 µM
IC50 (EZH-1): 0.006 µM
